Experiment in all cases: growth of human tumour cells (NCI), 48 h
Assay [1] has as its system BT-549 breast.
The test system of assay [2] is PC-3 prostate.
Assay [3] deals with SN12C renal.
In assay [4] the test system is SK-MEL-2 melanoma.
Assay [5] has as its system COLO 205 colon.
Assay [6] concerns HOP-62 NSCLC.
Assay [7] relates to 786-0 renal.
In assay [8] the test system is UACC-62 melanoma.
In assay [9] the test system is SF-539 CNS.
The test system of assay [10] is UO-31 renal.
The subject of assay [11] is MDA-N.
The subject of assay [12] is HT29 colon.
Assay [13] relates to K-562 leukemia.
Assay [14] concerns MOLT-4 leukemia.
The subject of assay [15] is SNB-75 CNS.
In assay [16] the test system is MDA-MB-231 breast.
Assay [17] has as its system DU-145 prostate.
The test system of assay [18] is NCI-H522 lung.
For assay [19], the system named is LOX IMVI melanoma.
The subject of assay [20] is HL-60(TB) leukemia.

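How tested: cells in 96-well plates exposed to compound for 48 hours at five concentrations. TGI denotes the concentration required for complete inhibition of growth.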 A value given as a limit tells only on which side of the number the result lay.

With `O=[N+]([O-])C(=C1Nc2ccccc2N1)/C(Cl)=C(/Cl)N1CCOCC1`, the TGI in assay [1], in [2], in [3], in assay [4], in assay [5] and in [6] was greater than 100 µM in each case. Also, the TGI in [7], in assay [8], in assay [9], in assay [10], in assay [11] and in assay [12] was greater than 100 µM each time. Further, the TGI in assay [13], in assay [14], in [15] and in assay [16] was greater than 100 µM in each case.

In the case of `COc1cc([C@@]23OC[C@@H]4[C@@H](OC[C@@H]42)c2cc4c(cc23)OCO4)cc(OC)c1OC`, the TGI in [1] is greater than 66.4 µM; in assay [2], greater than 100 µM; in assay [4], 62.8 µM; in assay [6] it was greater than 100 µM; in assay [7] it was greater than 100 µM; in [17] it was greater than 100 µM. Further, the TGI is greater than 100 µM in assay [8]; greater than 47.1 µM in assay [9]; greater than 100 µM in assay [10]; greater than 100 µM in assay [11]; greater than 100 µM in assay [12]; greater than 100 µM in assay [13]. Also, the TGI was less than 0.01 µM in assay [18], greater than 100 µM in [14], greater than 100 µM in [15] and less than 0.01 µM in assay [16].

Turning to `CCOC(=O)/C=C/[C@H](O)[C@@H](O)/C=C/C(=O)OCC`, the TGI is greater than 100 µM in assay [1]; greater than 100 µM in assay [2]; 85.2 µM in assay [3]; greater than 100 µM in assay [4]; greater than 100 µM in [5]; 85 µM in [6]. In addition, the TGI is greater than 100 µM in assay [7]; greater than 100 µM in assay [17]; 57.4 µM in assay [8]; greater than 100 µM in assay [9]; greater than 100 µM in [10]; 74.2 µM in assay [19]. The TGI in [11] is greater than 100 µM; in assay [12], 36.9 µM; in assay [13] it was 27.7 µM; in [18] it was 39.2 µM; in assay [14], 41.5 µM; in assay [15] it was greater than 100 µM. The compound also displayed a TGI in assay [16] greater than 100 µM.

For `C=C1C(=O)OC2CC(=C)C3CC=C(C)C3CC12` (stereo not drawn), the TGI in assay [1] is 59.7 µM; in assay [2] it was 28.4 µM; in assay [3] it was 31.7 µM; in assay [4], 26.5 µM; in assay [5] it was 41.7 µM; in assay [6], greater than 100 µM. For the same compound, the TGI in assay [7] is 31.3 µM; in [8], 25.3 µM; in assay [9], greater than 100 µM; in assay [10], 29.3 µM; in assay [19] it was 23.5 µM; in assay [11], 30.6 µM. Moreover, the TGI in [12] came out at 28.5 µM; in [13], 24.4 µM; in [20], 87.1 µM; in assay [18], 36.2 µM; in assay [14] it was 46.8 µM; in assay [16] it was 63.7 µM.

Turning to `CCN(CC)c1ccc2cc(-c3nnc(-c4ccccc4O)o3)c(=O)oc2c1`, the TGI was determined as 24.4 µM in assay [1]; 22.4 µM in [2]; 30.2 µM in [4]; 33.6 µM in assay [5]; 18.5 µM in assay [6]; 21.9 µM in assay [7]. The TGI in [17] worked out at 23.6 µM; in assay [8], 23.4 µM; in [9], 22.4 µM; in [10], 22.7 µM; in [19], 20.1 µM; in assay [11], 30.7 µM. For the same compound, the TGI in assay [12] was 26.3 µM; in assay [13] it was greater than 100 µM; in assay [20] it was 22.7 µM; in [18] it was 25.5 µM; in [14], 25.9 µM.

For the compound `O=C(NCCN1CCCCC1)c1ccc(I)cc1`, the TGI in [1], in [2], in assay [3], in assay [4], in assay [5] and in assay [6] was greater than 100 µM in each case. The TGI in assay [7], in assay [17], in [9], in assay [10], in assay [19] and in [11] was greater than 100 µM each time. The TGI in assay [12], in assay [13], in assay [18], in assay [14], in assay [15] and in [16] was greater than 100 µM in each case.

Consider `Fc1cccc(Cl)c1C1SCc2nc3cc4ccccc4cc3n21` (stereo not drawn), for which the TGI in assay [1], in assay [2], in assay [3], in assay [4], in [5] and in assay [6] was greater than 100 µM in each case. Further, the TGI in assay [7], in assay [17], in [8], in assay [9], in assay [19] and in [11] was greater than 100 µM each time. Moreover, the TGI in assay [12], in assay [13], in assay [14] and in [16] was greater than 100 µM each time.

For `COC(=O)c1ccccc1/C=C1\Cc2c(C)cc(C)cc2C1=O`, the TGI in [1], in assay [2], in assay [3], in assay [4], in [6] and in assay [7] was greater than 100 µM throughout. In addition, the TGI in assay [8], in [9], in assay [10], in [19], in assay [11] and in assay [12] was greater than 100 µM each time. The TGI in assay [13], in assay [20], in assay [18], in [14], in assay [15] and in [16] was greater than 100 µM each time.
